Data as given in ChEMBL document CHEMBL5625165, “Nine-valent oleanolic acid conjugates as potent inhibitors blocking the entry of influenza A virus” (Eur J Med Chem, 2023).
Calls of active or inactive are those of the source. The rule behind the calls is not given here.

What was measured:
[1] = Selectivity index, ratio of CC50 for cytotoxicity against dog MDCK cells assessed as reduction in cell viability to IC50 for antiviral activity against influenza A virus B/Sichuan/531/2018 (Victoria) infected in MDCK cells assessed as inhibition of viral growth; assay type: toxicity, cell-based; settings: read-out: Ratio CC50/IC50
Influenza A virus [2] = assay: Antiviral activity against influenza A virus A/WSN/33(H1N1) infected in MDCK cells assessed as inhibition of viral growth at 30 uM incubated for 48 hrs by microscopic analysis; assay type: functional; design: scale not given: the % may be the effect or the level left
Influenza A virus [3] = assay: Antiviral activity against influenza A virus B/Darwin/58/2019 (Yamagata) infected in MDCK cells assessed as inhibition of viral growth; assay type: functional, organism-based
Erythrocyte [4] = assay: Hemolytic activity in rabbit RBC assessed as hemolysis at 300 uM incubated for 2 hr by spectrophotometry analysis; assay type: toxicity, cell-based, Oryctolagus cuniculus
Influenza A virus [5] = assay: Antiviral activity against influenza A virus A/WSN/33(H1N1) infected in MDCK cells assessed as inhibition of viral-induced cytopathic effect incubated for 48 hrs by microscopic analysis; assay type: functional, organism-based
[6] = Selectivity index, ratio of CC50 for cytotoxicity against dog MDCK cells assessed as reduction in cell viability to IC50 for antiviral activity against influenza A virus A/WSN/33(H1N1) infected in MDCK cells assessed as inhibition of viral-induced cytopathic effect; assay type: toxicity, cell-based; settings: read-out: Ratio CC50/IC50
Erythrocyte [7] = assay: Inhibition of hemagglutination in chicken RBC cells infected with Influenza A virus A/WSN/33 (H1N1) assessed as reduction in virus-induced agglutination of erythrocytes at 0.24 to 15 uM incubated for 24 mins; assay type: functional, cell-based; settings: Gallus gallus, dose 0.24-15 µM
Influenza A virus [8] = assay: Antiviral activity against influenza A virus A/WSN/33(H1N1) infected in MDCK cells assessed as reduction in M2 expression measured upto 2 hrs by time of addition assay; assay type: functional; design: scale not given: the % may be the effect or the level left
[9] = Selectivity index, ratio of CC50 for cytotoxicity against dog MDCK cells assessed as reduction in cell viability to IC50 for antiviral activity against influenza A virus B/Darwin/58/2019 (Yamagata) infected in MDCK cells assessed as inhibition of viral growth; assay type: toxicity, cell-based; settings: read-out: Ratio CC50/IC50
[10] = Cytotoxicity against dog MDCK cells assessed as cell viability at 30 uM incubated for 48 hrs by celltiter-glo assay; assay type: toxicity, cell-based, Canis lupus familiaris; settings: read-out: Activity
Influenza A virus [11] = assay: Antiviral activity against influenza A virus B/Sichuan/531/2018 (Victoria) infected in MDCK cells assessed as inhibition of viral growth; assay type: functional, organism-based
[12] = Cytotoxicity against dog MDCK cells assessed as reduction in cell viability incubated for 48 hrs by celltiter-glo assay; assay type: toxicity, cell-based, Canis lupus familiaris
[13] = Binding affinity to influenza A virus H1N1 (A/michigan/45/2015) assessed as dissociation constant by SPR analysis
Influenza A virus [14] = assay: Antiviral activity against influenza A virus A/WSN/33(H1N1) infected in MDCK cells assessed as inhibition of virus-induced cytopathic effect at 30 uM incubated for 48 hrs by microscopic analysis; assay type: functional, organism-based

Compound: CC1(C)CC[C@]2(C(=O)NCCOCCn3cc(COc4cc(C(=O)NCCNC(=O)OCCn5cc(COc6cc(OCc7cn(CCOC(=O)NCCNC(=O)c8cc(OCc9cn(CCOCCNC(=O)[C@]%10%11CCC(C)(C)C[C@H]%10C%10=CC[C@@H]%12[C@@]%13(C)CC[C@H](O)C(C)(C)[C@@H]%13CC[C@@]%12(C)[C@]%10(C)CC%11)nn9)c(OCc9cn(CCOCCNC(=O)[C@]%10%11CCC(C)(C)C[C@H]%10C%10=CC[C@@H]%12[C@@]%13(C)CC[C@H](O)C(C)(C)[C@@H]%13CC[C@@]%12(C)[C@]%10(C)CC%11)nn9)c(OCc9cn(CCOCCNC(=O)[C@]%10%11CCC(C)(C)C[C@H]%10C%10=CC[C@@H]%12[C@@]%13(C)CC[C@H](O)C(C)(C)[C@@H]%13CC[C@@]%12(C)[C@]%10(C)CC%11)nn9)c8)nn7)cc(OCc7cn(CCOC(=O)NCCNC(=O)c8cc(OCc9cn(CCOCCNC(=O)[C@]%10%11CCC(C)(C)C[C@H]%10C%10=CC[C@@H]%12[C@@]%13(C)CC[C@H](O)C(C)(C)[C@@H]%13CC[C@@]%12(C)[C@]%10(C)CC%11)nn9)c(OCc9cn(CCOCCNC(=O)[C@]%10%11CCC(C)(C)C[C@H]%10C%10=CC[C@@H]%12[C@@]%13(C)CC[C@H](O)C(C)(C)[C@@H]%13CC[C@@]%12(C)[C@]%10(C)CC%11)nn9)c(OCc9cn(CCOCCNC(=O)[C@]%10%11CCC(C)(C)C[C@H]%10C%10=CC[C@@H]%12[C@@]%13(C)CC[C@H](O)C(C)(C)[C@@H]%13CC[C@@]%12(C)[C@]%10(C)CC%11)nn9)c8)nn7)c6)nn5)cc(OCc5cn(CCOCCNC(=O)[C@]67CCC(C)(C)C[C@H]6C6=CC[C@@H]8[C@@]9(C)CC[C@H](O)C(C)(C)[C@@H]9CC[C@@]8(C)[C@]6(C)CC7)nn5)c4OCc4cn(CCOCCNC(=O)[C@]56CCC(C)(C)C[C@H]5C5=CC[C@@H]7[C@@]8(C)CC[C@H](O)C(C)(C)[C@@H]8CC[C@@]7(C)[C@]5(C)CC6)nn4)nn3)CC[C@]3(C)C(=CC[C@@H]4[C@@]5(C)CC[C@H](O)C(C)(C)[C@@H]5CC[C@]43C)[C@@H]2C1
- selectivity ratio [1]: > 1.1
- Activity (Influenza A virus [2]): 100%
- IC50 (Influenza A virus [3]): 9.38 µM
- Activity (Erythrocyte [4]): Non-Toxic
- IC50 (Influenza A virus [5]): 7.93 µM
- selectivity ratio [6]: > 3.78
- inhibition (Erythrocyte [7]): Active
- Activity (Influenza A virus [8]): >90%
- selectivity ratio [9]: > 3.2
- viability at 48 h, 30 µM [10]: 96.5%
- IC50 (Influenza A virus [11]): 27.2 µM
- CC50 at 48 h [12]: > 30 µM

Compound: CC1(C)CC[C@]2(C(=O)NCCOCCOCCOCCn3cc(COc4cc(C(=O)NCCOCCOCCOCCn5cc(COc6cc(OCc7cn(CCOCCOCCOCCNC(=O)c8cc(OCc9cn(CCOCCOCCOCCNC(=O)[C@]%10%11CCC(C)(C)C[C@H]%10C%10=CC[C@@H]%12[C@@]%13(C)CC[C@H](O)C(C)(C)[C@@H]%13CC[C@@]%12(C)[C@]%10(C)CC%11)nn9)c(OCc9cn(CCOCCOCCOCCNC(=O)[C@]%10%11CCC(C)(C)C[C@H]%10C%10=CC[C@@H]%12[C@@]%13(C)CC[C@H](O)C(C)(C)[C@@H]%13CC[C@@]%12(C)[C@]%10(C)CC%11)nn9)c(OCc9cn(CCOCCOCCOCCNC(=O)[C@]%10%11CCC(C)(C)C[C@H]%10C%10=CC[C@@H]%12[C@@]%13(C)CC[C@H](O)C(C)(C)[C@@H]%13CC[C@@]%12(C)[C@]%10(C)CC%11)nn9)c8)nn7)cc(OCc7cn(CCOCCOCCOCCNC(=O)c8cc(OCc9cn(CCOCCOCCOCCNC(=O)[C@]%10%11CCC(C)(C)C[C@H]%10C%10=CC[C@@H]%12[C@@]%13(C)CC[C@H](O)C(C)(C)[C@@H]%13CC[C@@]%12(C)[C@]%10(C)CC%11)nn9)c(OCc9cn(CCOCCOCCOCCNC(=O)[C@]%10%11CCC(C)(C)C[C@H]%10C%10=CC[C@@H]%12[C@@]%13(C)CC[C@H](O)C(C)(C)[C@@H]%13CC[C@@]%12(C)[C@]%10(C)CC%11)nn9)c(OCc9cn(CCOCCOCCOCCNC(=O)[C@]%10%11CCC(C)(C)C[C@H]%10C%10=CC[C@@H]%12[C@@]%13(C)CC[C@H](O)C(C)(C)[C@@H]%13CC[C@@]%12(C)[C@]%10(C)CC%11)nn9)c8)nn7)c6)nn5)cc(OCc5cn(CCOCCOCCOCCNC(=O)[C@]67CCC(C)(C)C[C@H]6C6=CC[C@@H]8[C@@]9(C)CC[C@H](O)C(C)(C)[C@@H]9CC[C@@]8(C)[C@]6(C)CC7)nn5)c4OCc4cn(CCOCCOCCOCCNC(=O)[C@]56CCC(C)(C)C[C@H]5C5=CC[C@@H]7[C@@]8(C)CC[C@H](O)C(C)(C)[C@@H]8CC[C@@]7(C)[C@]5(C)CC6)nn4)nn3)CC[C@]3(C)C(=CC[C@@H]4[C@@]5(C)CC[C@H](O)C(C)(C)[C@@H]5CC[C@]43C)[C@@H]2C1
- selectivity ratio [1]: > 0.9
- Activity (Influenza A virus [2]): 76.88%
- IC50 (Influenza A virus [5]): 5.23 µM
- Kd [13]: 12.9 µM
- selectivity ratio [6]: > 5.74
- inhibition (Erythrocyte [7]): Active
- Activity (Influenza A virus [8]): >90%
- Activity (Influenza A virus [14]): Active
- viability at 48 h, 30 µM [10]: 100%
- IC50 (Influenza A virus [11]): 33.5 µM
- CC50 at 48 h [12]: > 30 µM
